Data from US9951373B2, “Oplophorus-derived luciferases, novel coelenterazine substrates, and methods of use” (Promega Corporation, priority 2010, dated 2018).
Where two headings read alike, the source gives them in different places.

Tests used:
[1] = tested on: red click beetle luciferase and OgLuc variant 9B8 opt; experiment: Multiplexing with red click beetle luciferase, modified DUAL-GLO assay; type: biochemical; conditions: first step, red click beetle luciferase signal
Experimental: (§1) A. Lysates of E. coli expressing the variant 9B8 opt were prepared as previously described in Example 27 and diluted 1000-fold in DMEM without phenol red+0.1% PRIONEX®. Luminescence from a sample containing 6.3 μg/mL of purified red click beetle luciferase and E. coli lysate expressing the variant 9B8 opt was detected using a modified DUAL-GLO® Luciferase Assay System (Promega Corp.). DUAL-GLO® STOP&GLO® Reagent containing 20 μM coelenterazine-h and DUAL-GLO® STOP&GLO® Reagent containing 20 μM PBI 3939 were used, according to the manufacturer's protocol, to detect the red click beetle luciferase and OgLuc variant 9B8 luciferase from a single sample. Three replicates were performed.
(§2) Luminescence was detected on a Turner MODULUS™ luminometer. […] The standard deviation (“+/−”) and coefficient of variance (“CV”) are also shown. A “no coelenterazine” control was performed to illustrate the amount of quenching of the red click beetle signal by the DUAL-GLO® STOP&GLO® Reagent of the DUAL-GLO® Luciferase Assay System in the absence of coelenterazine. The “no coelenterazine” control yielded a 349-fold quench.

[2] = target: T1, red click beetle luciferase and OgLuc variant 9B8 opt (Oplophorus gracilirostris, UniProt Q9GV45, A31E/A60K/A81I/F95Y/I117V/L99Q/M102K/N193R/P142E/Q151K/Q38R/Q45L/V71I/Y165I); experiment: as above; type: biochemical; conditions: 9B8 opt, STOP&GLO Reagent with 20 μM of the substrate
T1 construct: The IV-based variants were generated in a pF4Ag vector background without HT7; made in house; host or cells: E. coli (crude lysate, diluted 1000-fold)
Experimental: as §1, §2

[3] = tested on: HEK293 cells; experiment: Live cell luminescence with PBI-3939; type: cell-based, human; conditions: cells in culture, 60 μM
Experimental: A. The use of OgLuc variants and PBI-3939 in live cells was examined HEK293 cells were plated in 96-well plates at 15,000 cells/well and grown overnight at 37° C. The following day, the cells were transiently transfected using TRANSIT®-LT1 in 3 replicates with 100 ng of hRL or 9B8 opt in pF4Ag and grown overnight at 37° C. The following day the growth media was removed and replaced with media containing 60 μM VIVIREN™ Live Cell Substrate (Promega Corp.), 60 μM ENDUREN™ Live Cell Substrate (Promega Corp.), or 60 μM PBI-3939 for both hRL and 9B8 opt transfected cells. Non-transfected cells were used as background control. The plate was incubated at 37° C. during the course of one day and periodically measured on a TECAN® GENIOS™ Pro luminometer, i.e., 11 times over the course of 24 hrs.

[4] = tested on: HEK293 cells
[5] = Stability of coelenterazines in reporter reagent buffer (T90); conditions: time for luminescent signal to decay by 10% at 22° C. in reporter reagent buffer; read with IV lysate
[6] = target: T2, OgLuc variant 9B8 (Oplophorus gracilirostris, UniProt Q9GV45, A31E/A60K/A81I/F95Y/I117V/L99Q/M102K/N193R/P142E/Q151K/Q38R/Q45L/V71I/Y165I); experiment: LOPAC library inhibition screen; type: biochemical; conditions: preliminary LOPAC screen, 9B8, 20 μM substrate
T2 construct: The IV-based variants were generated in a pF4Ag vector background without HT7; made in house; host or cells: E. coli (crude lysate)
Experimental: To determine the susceptibility of the OgLuc variants to off-target interactions, the activity of the 9B8 and L27V variants was screened against a LOPAC (library of pharmacologically active compounds) library. A LOPAC 1280 library (Sigma) was prepared by diluting the compounds to 1 mM in DMSO. On the day of the assay, the compounds were diluted to 20 μM in 1×PBS, and 10 μL transferred to a 96-well, white plate. To each well, 10 μL of purified 9B8, L27V or firefly luciferase (Luc2) enzyme diluted 10^−4 in Glo Lysis Buffer (Promega Corp.) was added and incubated at room temperature for 2 min. […] For assaying firefly luciferase, the BRIGHT-GLO™ Assay reagent (Promega Corp.) was used according to the manufacturer's protocol. As a negative control, 8 wells of each plate contained 1×PBS+2% glycerol. As a positive control, 8 wells of each plate contained 2 mM Suramin in 2% DMSO or 2 mM luciferase inhibitor 1 in 2% DMSO (Calbiochem).

T1 sequence (Q9GV45 other isoform, or with tags, fused parts or gaps with the stated changes): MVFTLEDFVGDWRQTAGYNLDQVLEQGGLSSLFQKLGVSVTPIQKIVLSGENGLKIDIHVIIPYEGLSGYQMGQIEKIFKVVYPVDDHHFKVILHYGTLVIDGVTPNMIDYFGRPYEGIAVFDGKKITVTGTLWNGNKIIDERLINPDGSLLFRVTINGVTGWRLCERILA
T2 sequence (Q9GV45 other isoform, or with tags, fused parts or gaps with the stated changes): as above

| Compound | Stability (pH 8) (T90 in hrs) | Stability (pH 8) (T90 in hrs) [5] | other results |
| --- | --- | --- | --- |
| O=c1c(Cc2ccco2)nc2c(Cc3ccccc3)[nH]c(-c3ccccc3)cn1-2 [PBI-3939, 8-benzyl-2-(furan-2-ylmethyl)-6-phenylimidazo[1,2-a]pyrazin-3(7H)-one] | 4.1 hrs |  | click beetle (average luminescence) [1]: 5,078,547; Ogluc (average luminescence) [2]: 2,996,940; cell permeability [3]: can permeate cells in culture; biocompatibility in terms of cell viability [4]: comparable biocompatibility to native coelenterazine |
| Cc1ccc(C(=O)Nc2ccc(S(=O)(=O)O)c3cc(S(=O)(=O)O)cc(S(=O)(=O)O)c23)cc1NC(=O)c1cccc(NC(=O)Nc2cccc(C(=O)Nc3cc(C(=O)Nc4ccc(S(=O)(=O)O)c5cc(S(=O)(=O)O)cc(S(=O)(=O)O)c45)ccc3C)c2)c1 [Suramin] |  |  | inhibition of OgLuc [6]: inhibitor of OgLuc |
| O=c1c(Cc2ccccc2)nc2c(Cc3ccccc3)[nH]c(-c3ccccc3)cn1-2 [coelenterazine-hh, bisdeoxycoelenterazine, reference compound] |  | 2.0 hrs |  |
| Oc1ccc(Cc2nc3c(Cc4ccccc4)nc(-c4ccc(O)cc4)cn3c2O)cc1 [native coelenterazine, coelenterazine] | 1.7 hrs |  |  |
| coelenterazine-h [reference compound] |  | 2.1 hrs | click beetle (average luminescence) [1]: 5,082,100; Ogluc (average luminescence) [2]: 921,440 |

More lines, main results first:

| Stability (pH 8) (T90 in hrs) | Stability (pH 8) (T90 in hrs) [5] | Compound | other results |
| --- | --- | --- | --- |
| 2.9 hrs |  | O=c1c(Cc2cccs2)nc2c(Cc3ccccc3)[nH]c(-c3ccccc3)cn1-2 [PBI-3889, 8-benzyl-6-phenyl-2-(thiophen-2-ylmethyl)imidazo[1,2-a]pyrazin-3(7H)-one] |  |
| 2.8 hrs |  | Cc1[nH]c(-c2ccccc2)cn2c(=O)c(Cc3ccc(O)cc3)nc1-2 [PBI-3896, 2-(4-hydroxybenzyl)-8-methyl-6-phenylimidazo[1,2-a]pyrazin-3(7H)-one] |  |
|  | 3.3 hrs | O=c1c(Cc2ccco2)nc2c(Cc3ccccc3)[nH]c(-c3ccc(O)cc3)cn1-2 [PBI-3945] |  |
|  | 3.5 hrs | O=c1c(Cc2cccs2)nc2c(Cc3ccccc3)[nH]c(-c3ccc(O)cc3)cn1-2 [PBI-4002] |  |
